ChEMBL document CHEMBL3991601, “The target landscape of clinical kinase drugs” (Science, 2017)
The source made the active and inactive calls.

Legend:
[1] = target: T1, Mitogen-activated protein kinase kinase kinase 6 (Homo sapiens, UniProt O95382)
T1 sequence (O95382 whole entry): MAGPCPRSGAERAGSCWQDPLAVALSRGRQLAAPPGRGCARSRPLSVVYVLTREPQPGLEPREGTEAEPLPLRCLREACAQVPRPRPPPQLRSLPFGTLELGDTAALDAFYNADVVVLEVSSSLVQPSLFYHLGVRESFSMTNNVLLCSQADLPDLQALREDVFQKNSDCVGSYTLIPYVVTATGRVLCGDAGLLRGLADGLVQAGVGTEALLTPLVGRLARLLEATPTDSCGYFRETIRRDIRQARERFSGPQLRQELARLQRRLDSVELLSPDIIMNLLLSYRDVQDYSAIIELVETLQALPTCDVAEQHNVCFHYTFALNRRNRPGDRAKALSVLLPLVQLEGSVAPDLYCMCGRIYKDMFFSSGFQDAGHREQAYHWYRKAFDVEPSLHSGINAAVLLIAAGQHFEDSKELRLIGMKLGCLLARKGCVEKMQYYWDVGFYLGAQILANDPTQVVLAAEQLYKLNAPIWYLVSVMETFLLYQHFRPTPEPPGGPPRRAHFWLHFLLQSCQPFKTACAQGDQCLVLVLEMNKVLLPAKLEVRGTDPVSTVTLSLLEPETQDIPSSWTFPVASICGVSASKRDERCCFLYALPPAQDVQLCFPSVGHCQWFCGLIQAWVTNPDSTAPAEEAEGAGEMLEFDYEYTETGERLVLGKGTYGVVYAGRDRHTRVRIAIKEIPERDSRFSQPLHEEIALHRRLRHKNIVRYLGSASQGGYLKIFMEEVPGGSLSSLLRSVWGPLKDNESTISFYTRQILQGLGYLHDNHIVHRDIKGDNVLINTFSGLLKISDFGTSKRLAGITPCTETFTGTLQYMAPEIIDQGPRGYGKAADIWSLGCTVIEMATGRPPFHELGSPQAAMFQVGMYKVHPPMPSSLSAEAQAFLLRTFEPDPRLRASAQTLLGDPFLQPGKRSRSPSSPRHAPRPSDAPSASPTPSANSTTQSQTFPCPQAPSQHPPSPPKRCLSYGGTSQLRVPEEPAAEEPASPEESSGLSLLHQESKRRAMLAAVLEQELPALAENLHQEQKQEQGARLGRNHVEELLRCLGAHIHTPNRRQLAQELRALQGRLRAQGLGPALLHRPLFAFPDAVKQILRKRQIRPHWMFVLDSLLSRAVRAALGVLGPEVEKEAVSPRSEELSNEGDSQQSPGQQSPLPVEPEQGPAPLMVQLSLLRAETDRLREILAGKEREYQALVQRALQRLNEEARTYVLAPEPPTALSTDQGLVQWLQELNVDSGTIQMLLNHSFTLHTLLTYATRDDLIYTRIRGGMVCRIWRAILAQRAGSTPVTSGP

[2] = target: T2, Ephrin type-B receptor 4 (Homo sapiens, UniProt P54760)
T2 sequence (P54760 whole entry): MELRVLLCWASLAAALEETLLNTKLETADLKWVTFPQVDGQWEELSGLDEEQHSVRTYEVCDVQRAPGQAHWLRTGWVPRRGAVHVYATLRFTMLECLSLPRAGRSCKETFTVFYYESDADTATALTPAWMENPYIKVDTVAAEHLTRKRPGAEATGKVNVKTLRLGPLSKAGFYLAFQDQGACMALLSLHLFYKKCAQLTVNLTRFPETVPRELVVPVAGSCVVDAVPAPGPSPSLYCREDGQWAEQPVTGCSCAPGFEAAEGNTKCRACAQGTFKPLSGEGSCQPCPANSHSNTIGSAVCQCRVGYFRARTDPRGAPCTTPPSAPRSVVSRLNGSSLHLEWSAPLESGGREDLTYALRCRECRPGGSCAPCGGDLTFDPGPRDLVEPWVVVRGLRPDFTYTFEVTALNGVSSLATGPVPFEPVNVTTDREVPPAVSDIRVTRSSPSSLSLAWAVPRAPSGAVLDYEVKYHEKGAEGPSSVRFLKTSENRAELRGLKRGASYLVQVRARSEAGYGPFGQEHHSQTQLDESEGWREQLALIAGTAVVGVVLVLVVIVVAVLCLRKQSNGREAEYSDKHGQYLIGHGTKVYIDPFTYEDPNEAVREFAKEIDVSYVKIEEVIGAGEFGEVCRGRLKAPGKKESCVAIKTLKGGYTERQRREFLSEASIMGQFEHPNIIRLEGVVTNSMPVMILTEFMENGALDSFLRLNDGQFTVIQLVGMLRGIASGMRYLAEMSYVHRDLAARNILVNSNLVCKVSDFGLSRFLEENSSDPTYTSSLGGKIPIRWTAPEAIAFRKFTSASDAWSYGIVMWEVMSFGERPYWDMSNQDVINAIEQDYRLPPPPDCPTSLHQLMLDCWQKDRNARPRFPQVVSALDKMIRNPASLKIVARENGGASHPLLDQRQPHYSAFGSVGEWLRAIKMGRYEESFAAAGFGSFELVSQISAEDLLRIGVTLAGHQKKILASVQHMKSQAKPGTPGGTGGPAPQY

[3] = target: Dual specificity mitogen-activated protein kinase kinase 1 (Homo sapiens, UniProt Q02750)
Chain of Dual specificity mitogen-activated protein kinase kinase 1 (Q02750 whole entry): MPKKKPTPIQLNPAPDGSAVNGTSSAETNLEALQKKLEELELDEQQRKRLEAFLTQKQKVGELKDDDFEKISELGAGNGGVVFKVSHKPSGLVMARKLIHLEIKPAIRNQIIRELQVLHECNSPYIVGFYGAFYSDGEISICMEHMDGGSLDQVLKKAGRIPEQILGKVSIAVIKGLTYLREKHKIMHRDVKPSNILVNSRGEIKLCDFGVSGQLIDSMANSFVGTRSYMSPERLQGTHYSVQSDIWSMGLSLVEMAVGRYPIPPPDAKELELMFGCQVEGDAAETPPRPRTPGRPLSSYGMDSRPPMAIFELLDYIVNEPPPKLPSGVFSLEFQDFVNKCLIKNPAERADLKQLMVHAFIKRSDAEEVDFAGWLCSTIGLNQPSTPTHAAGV

[4] = target: T3, Cytochrome c1, heme protein, mitochondrial (Homo sapiens, UniProt P08574)
T3 sequence (P08574 whole entry): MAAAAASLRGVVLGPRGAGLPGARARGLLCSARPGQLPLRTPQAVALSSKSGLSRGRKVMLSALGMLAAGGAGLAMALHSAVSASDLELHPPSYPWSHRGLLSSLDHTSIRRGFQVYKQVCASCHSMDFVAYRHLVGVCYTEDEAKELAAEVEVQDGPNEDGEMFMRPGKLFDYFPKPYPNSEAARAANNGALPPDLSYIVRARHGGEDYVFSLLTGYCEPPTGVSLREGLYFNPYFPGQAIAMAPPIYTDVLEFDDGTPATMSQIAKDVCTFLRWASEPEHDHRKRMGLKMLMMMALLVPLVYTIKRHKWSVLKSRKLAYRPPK
Also: in the data inactive means no Kd found up to 30 µM.

Structure (SMILES): C=CC(=O)N1CCC(Oc2cc3c(Nc4ccc(Cl)c(Cl)c4F)ncnc3cc2OC)CC1 [POZIOTINIB]
- Kd [1]: > 30 µM (inactive)
- Kd [2]: 0.34 µM (active)
- Kd [3]: > 30 µM (inactive)
- Kd [4]: > 30 µM (inactive)
